Read-outs that look alike come from different tables or passages of the source. Square brackets hold non-standard residues; d marks the D form. Peptide text beside a SMILES is read from it. * marks the point of attachment. MMAE(N-CO2CH2CH2S) = CC[C@H](C)[C@@H]([C@@H](CC(=O)N1CCC[C@H]1[C@H](OC)[C@@H](C)C(=O)N[C@H](C)[C@@H](O)c1ccccc1)OC)N(C)C(=O)[C@@H](NC(=O)[C@H](C(C)C)N(C)C(=O)OCCS*)C(C)C; Propanoyl(3-SS-DM1) = COc1cc2cc(c1Cl)N(C)C(=O)C[C@H](OC(=O)[C@H](C)N(C)C(=O)CCSSCCC(=O)*)[C@]1(C)O[C@H]1[C@H](C)[C@@H]1C[C@@](O)(NC(=O)O1)[C@H](OC)/C=C/C=C(\C)C2; NMeR = CN[C@@H](CCCNC(=N)N)C(=O)O; Pen = CC(C)(S)[C@H](N)C(=O)O; Tle = CC(C)(C)[C@H](N)C(=O)O
How the values were obtained:
[1] = test system: HT-29 cells (human colon cancer cells); test: inhibition of HT29 cell proliferation (Cell Titer Glo 2.0); assay type: cell-based; conditions: 72 h
Protocol: Conjugates were assessed in an in vitro assay evaluating inhibition of cell proliferation. HT-29 cells (human colon cancer cells) were seeded in white walled 96-well plates at 10,000 cells per well in 100 μl McCoy's 5a (Invitrogen) media supplemented with 10% Fetal Bovine Serum (Invitrogen). After allowing cells to settle overnight, 5 μl of 20× test article was added to each well in replicate and incubated for 72 h. 72 hours after addition of compound, plates were removed from incubator and allowed to cool to room temperature. 50 μl of Cell Titer Glo 2.0 (Promega) was added to each well, incubated for 15 minutes, and plates were read on Glomax luminometer (Promega) using the Cell Titer Glo protocol. Raw luminometer readings for each plate were transformed by dividing the experimental well into the mean of untreated control wells. This is reported as ratio of untreated, and is plotted with Prism 6 software (Graph Pad) and fitted with a 4-parameter, variable slope curve.
Conjugates are assessed for receptor-dependent cytotoxicity by the difference between an NTSR1-targeting conjugate, and the corresponding conjugate with the same linker moiety and active agent where the NTSR1-targeting domain has been scrambled.

human NTSR1 = target: T1, human NTSR1 (Homo sapiens, UniProt P30989); test: radioligand-receptor binding assay, [125I] labeled neurotensin (Eurofins Panlabs)
T1 construct: host or cells: HEK-293 cells (membrane preparations)
T1 sequence (P30989 whole entry): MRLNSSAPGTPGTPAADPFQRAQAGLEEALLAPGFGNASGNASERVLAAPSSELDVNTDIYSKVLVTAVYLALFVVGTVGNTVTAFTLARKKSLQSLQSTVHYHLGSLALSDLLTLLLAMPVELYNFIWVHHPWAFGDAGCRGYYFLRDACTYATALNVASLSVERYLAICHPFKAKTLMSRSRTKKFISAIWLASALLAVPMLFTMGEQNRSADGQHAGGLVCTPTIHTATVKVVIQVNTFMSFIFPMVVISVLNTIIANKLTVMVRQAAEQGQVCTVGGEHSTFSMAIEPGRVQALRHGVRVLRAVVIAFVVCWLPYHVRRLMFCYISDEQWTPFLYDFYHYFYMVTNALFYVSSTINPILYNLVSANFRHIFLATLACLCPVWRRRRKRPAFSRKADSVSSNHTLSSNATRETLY
Outline: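 Membranes from HEK-293 cells expressing human NTSR1 incubated 45 min with 0.02 nM [125I]neurotensin and conjugate in 6-point 3-fold dilutions from 100 or 10 nM; bound radioactivity counted after filtration. IC50 by nonlinear regression, converted to Ki via Cheng–Prusoff using historical ligand Kd.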

[2] = test system: SW48 (human colon cancer cells); test: inhibition of SW48 cell proliferation (CellTiter Glo); assay type: cell-based; conditions: 72 hrs, read-out: SW-48 proliferation IC50
Outline: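 Cells plated at 5,000/well and grown 24 hrs were exposed to conjugates for 72 hrs at 37° C, 5% CO2, in a ten-point three-fold series starting at 10 μM; vehicle was 0.01% DMSO. Proliferation was read by CellTiter Glo. % inhibition was taken relative to vehicle, with IC50 from four-parameter nonlinear regression.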

[3] = [125I] neurotensin 0.02 nM, membranes from NTSR1 expressing HEK-293 cells, 45 minute incubation, Cheng and Prusoff, read-out: NTSR1 binding Ki

Question: Which results are given for `CC[C@H](C)[C@@H]([C@@H](CC(=O)N1CCC[C@H]1[C@H](OC)[C@@H](C)C(=O)N[C@H](C)[C@@H](O)c1ccccc1)OC)N(C)C(=O)[C@@H](NC(=O)[C@H](C(C)C)N(C)C(=O)OCc1ccc(NC(=O)[C@H](CCCNC(N)=O)NC(=O)[C@@H](NC(=O)CCCCCN2C(=O)CC(SCCC(=O)NCCCC[C@H](NC(C)=O)C(=O)N3CCC[C@H]3C(=O)N(C)[C@@H](CCCNC(=N)N)C(=O)N[C@@H](CCCNC(=N)N)C(=O)N3CCC[C@H]3C(=O)N[C@@H](Cc3ccc(O)cc3)C(=O)N[C@H](C(=O)N[C@@H](CC(C)C)C(=O)O)C(C)(C)C)C2=O)C(C)C)cc1)C(C)C` (stereo partly drawn) [Compound 54]?
Answer: IC50 ([1]; NTSR1 targeted compound): 6.2 nM; Ki (human NTSR1): 1.45 nM; IC50 ([2]; NTSR1 targeted compound): 22 nM

Question: `COc1cc2cc(c1Cl)N(C)C(=O)C[C@H](OC(=O)[C@H](C)N(C)C(=O)CCSSCCC(=O)NCCCC[C@H](NC(C)=O)C(=O)N1CCC[C@H]1C(=O)N(C)[C@@H](CCCNC(=N)N)C(=O)N[C@@H](CCCNC(=N)N)C(=O)N1CCC[C@H]1C(=O)N[C@@H](Cc1ccc(O)cc1)C(=O)N[C@H](C(=O)N[C@@H](CC(C)C)C(=O)O)C(C)(C)C)[C@]1(C)O[C@H]1[C@H](C)[C@@H]1C[C@@](O)(NC(=O)O1)[C@H](OC)/C=C/C=C(\C)C2` [Compound 13] (Ac-K(Propanoyl(3-SS-DM1))P[NMeR]RPY[Tle]L-OH) was tested. Which IC50 ([1]; NTSR1 targeted compound) did it give?
Answer: The IC50 was 4.9 nM.

Question: And the Ki (human NTSR1; [3])?
Answer: Its Ki is 0.48 nM.

Question: What about the IC50 ([2]; NTSR1 targeted compound) of the same molecule?
Answer: Its IC50 is 1.6 nM.

Question: For `COc1cc2cc(c1Cl)N(C)C(=O)C[C@H](OC(=O)[C@H](C)N(C)C(=O)CCSC1CC(=O)N(CCCNC(=O)CNC(=O)[C@H](CC(C)C)NC(=O)[C@H](Cc3ccccc3)NC(=O)CNC(=O)CCC(=O)NCCCC[C@H](NC(C)=O)C(=O)N3CCC[C@H]3C(=O)N(C)[C@@H](CCCNC(=N)N)C(=O)N[C@@H](CCCNC(=N)N)C(=O)N3CCC[C@H]3C(=O)N[C@@H](Cc3ccc(O)cc3)C(=O)N[C@H](C(=O)N[C@@H](CC(C)C)C(=O)O)C(C)(C)C)C1=O)[C@]1(C)O[C@H]1[C@H](C)[C@@H]1C[C@@](O)(NC(=O)O1)[C@H](OC)/C=C/C=C(\C)C2` (stereo partly drawn) [Compound 14], which IC50 ([1]; NTSR1 targeted compound) is on record?
Answer: The IC50 was 17 nM.

Question: What about the Ki (human NTSR1; [3]) of the same molecule?
Answer: Its Ki is 0.78 nM.

Question: And the IC50 ([2]; NTSR1 targeted compound)?
Answer: Its IC50 is 2.2 nM.

Question: `CC[C@H](C)[C@@H]([C@@H](CC(=O)N1CCC[C@H]1[C@H](OC)[C@@H](C)C(=O)N[C@H](C)[C@@H](O)c1ccccc1)OC)N(C)C(=O)[C@@H](NC(=O)[C@H](C(C)C)N(C)C(=O)OCCSSC(C)(C)[C@H](NC(C)=O)C(=O)N1CCC[C@H]1C(=O)N[C@@H](CCCNC(=N)N)C(=O)N[C@@H](CCCNC(=N)N)C(=O)N1CCC[C@H]1C(=O)N[C@@H](Cc1ccc(O)cc1)C(=O)N[C@H](C(=O)N[C@@H](CC(C)C)C(=O)O)C(C)(C)C)C(C)C` [Compound 55] (Ac-[Pen](MMAE(N-CO2CH2CH2S))PRRPY[Tle]L-OH) was tested. Which IC50 ([1]; NTSR1 targeted compound) did it give?
Answer: The IC50 was 1.9 nM.

Question: And the Ki (human NTSR1; [3])?
Answer: The Ki was 1.53 nM.

Question: What about the IC50 ([2]; NTSR1 targeted compound) of the same molecule?
Answer: Its IC50 is 13 nM.

Question: How did the IC50 ([1]; NTSR1 targeted compound) turn out when `CC[C@H](C)[C@@H]([C@@H](CC(=O)N1CCC[C@H]1[C@H](OC)[C@@H](C)C(=O)N[C@H](C)[C@@H](O)c1ccccc1)OC)N(C)C(=O)[C@@H](NC(=O)[C@H](C(C)C)N(C)C(=O)OCCSSCCC(=O)NCCCC[C@H](NC(C)=O)C(=O)N1CCC[C@H]1C(=O)N(C)[C@@H](CCCNC(=N)N)C(=O)N[C@@H](CCCNC(=N)N)C(=O)N1CCC[C@H]1C(=O)N[C@@H](Cc1ccc(O)cc1)C(=O)N[C@H](C(=O)N[C@@H](CC(C)C)C(=O)O)C(C)(C)C)C(C)C` [Compound 56] was run?
Answer: The IC50 was 0.42 nM.

Question: What about the Ki (human NTSR1; [3]) of the same molecule?
Answer: The Ki was 1.15 nM.

Question: And the IC50 ([2]; NTSR1 targeted compound)?
Answer: Its IC50 is 4.3 nM.

Question: For `COc1cc2cc(c1Cl)N(C)C(=O)C[C@H](OC(=O)[C@H](C)N(C)C(=O)CCSC1CC(=O)N(CCCCCC(=O)NCCCC[C@H](NC(C)=O)C(=O)N3CCC[C@H]3C(=O)N(C)[C@@H](CCCNC(=N)N)C(=O)N[C@@H](CCCNC(=N)N)C(=O)N3CCC[C@H]3C(=O)N[C@@H](Cc3ccc(O)cc3)C(=O)N[C@H](C(=O)N[C@@H](CC(C)C)C(=O)O)C(C)(C)C)C1=O)[C@]1(C)O[C@H]1[C@H](C)[C@@H]1C[C@@](O)(NC(=O)O1)[C@H](OC)/C=C/C=C(\C)C2` (stereo partly drawn) [Compound 15], which IC50 ([1]; NTSR1 targeted compound) is on record?
Answer: The IC50 was 96 nM.

Question: And the Ki (human NTSR1; [3])?
Answer: Its Ki is 1.08 nM.

Question: And the IC50 ([2]; NTSR1 targeted compound)?
Answer: Its IC50 is 70 nM.

Question: Which IC50 ([1]; NTSR1 scrambled compound) does the source give for `COc1cc2cc(c1Cl)N(C)C(=O)C[C@H](OC(=O)[C@H](C)N(C)C(=O)CCSC1CC(=O)N(CCCNC(=O)CNC(=O)[C@H](CC(C)C)NC(=O)[C@H](Cc3ccccc3)NC(=O)CNC(=O)CCC(=O)NCCCC[C@H](NC(C)=O)C(=O)N3CCC[C@H]3C(=O)N[C@@H](CC(C)C)C(=O)N3CCC[C@H]3C(=O)N(C)[C@@H](CCCNC(=N)N)C(=O)N[C@H](C(=O)N[C@@H](CCCNC(=N)N)C(=O)N[C@@H](Cc3ccc(O)cc3)C(=O)O)C(C)(C)C)C1=O)[C@]1(C)O[C@H]1[C@H](C)[C@@H]1C[C@@](O)(NC(=O)O1)[C@H](OC)/C=C/C=C(\C)C2` (stereo partly drawn) [Compound 79] here?
Answer: Its IC50 is 97 nM.

Question: What about the Ki (human NTSR1; [3]) of the same molecule?
Answer: The Ki was 980 nM.

Question: What about the IC50 ([2]; NTSR1 scrambled compound) of the same molecule?
Answer: Its IC50 is 76 nM.

Source: patent US20200078468A1, “NEUROTENSIN RECEPTOR BINDING CONJUGATES AND FORMULATIONS THEREOF” (priority 2016, published 2020)
